{"source": "patent US9879029B2", "about": "“ERK inhibitors” (Eli Lilly and Company, priority 2014, dated 2018)", "key": {"[1]": {"tested_on": "RSK1 phosphorylation in HCT116 tumor xenograft", "assay": "In vivo target inhibition (IVTI) assay (pRSK1 ELISA), HCT116 xenograft", "set-up": "species or system female athymic nude mice", "conditions": "oral", "method": "The purpose of this assay is to measure the ability of a test compound to inhibit ERK1/2 substrate phosphorylation in an animal model. Implant female athymic nude mice (22-25 g) from Harlan Laboratories with 5×10e^6 HCT116 colorectal cancer cells (ATCC, # CCL-247) subcutaneously in the right flank region in 200 μL of 1:1 Hank's Balanced Salt Solution (HBSS)+Matrigel solution. Measure tumor growth and body weight twice per week beginning the seventh day after the implantation. When tumor sizes reach 300-500 mm^3, randomize animals and group into groups of five animals. […]\nPulverize tumors in liquid nitrogen and lyse in 1× lysis buffer (MSD, #R60TX-3) containing 1× halt protease & phosphatase inhibitor cocktail (Thermo Scientific, #0861281), 1 mM phenylmethanesulfonyl fluoride (PMSF) (Sigma, #93482-50ML-F) and 1 μM sodium metavanadate (Sigma, #590088) using Matrix D beads (MP Biomedical, #6913-500) in a FastPrep-24™ Cell Disrupter machine (MP Biomedical) in a cold room (4° C.). […] Cool plate to room temperature and measure the absorbance at or near 562 nm on a plate reader (Envision plate reader from Perkin Elmer). Subtract the average 562 nm absorbance measurement of the blank standard replicates from the 562 nm measurements of all other individual standard and unknown (cell or tumor lysate) sample replicates. […]"}, "[2]": {"tested_on": "human melanoma cells A-375", "assay": "Xenograft tumor model A-375", "format": "in vivo, female NIH nude rats", "conditions": "oral; for Regression (%): p <0.001", "method": "The purpose of this assay is to measure reduction in tumor volume in response to test compound administration. Expand human colorectal cancer cells HCT116 (ATCC, #CCL-247) or human non-small cell lung cancer cells NCI-H358 (ATCC, # CRL-5807) in culture, harvest and inject 5×10e^6 cells in 200 μL of 1:1 HBSS+matrigel solution subcutaneously on to the rear right flank of female athymic nude mice (22-25 gm, Harlan Laboratories). Expand human pancreatic cancer cells SW1990 (ATCC, # CRL-2172) in culture, harvest and inject 2×10e^6 cells in 200 μL of 1:1 HBSS+matrigel solution subcutaneously on to the rear right flank of female athymic nude mice (22-25 gm, Harlan Laboratories). Expand human pancreatic cancer cells MIA PACA-2 (ATCC, # CRL-1420) or human non-small cell lung cancer cells A549 (ATCC, # CCl-185) in culture, harvest and inject 5×10e^6 cells in 200 μL of 1:1 HBSS+matrigel solution subcutaneously on to the rear right flank of female CB-17 SCID mice (22-25 gm, Charles River Laboratories International Inc.). Expand human melanoma cells A-375 (ATCC, # CRL-1619) in culture, harvest and inject 5×10e^6 cells in 200 μL of 1:1 HBSS+matrigel solution subcutaneously on to the rear right flank of female NIH nude rats (140-160 gm, Taconic Farms). Measure tumor growth and body weight twice per week beginning the seventh day after the implantation. When tumor sizes reach 200-400 mm^3, randomize animals and group into groups of eight to ten animals. Prepare test compound in an appropriate vehicle (vehicle: 1% HEC/0.25% Tween 80/0.05% Antifoam) and administer by oral gavage for 14 to 28 days. Tumor response is determined by tumor volume measurement performed twice a week during the course of treatment."}, "[3]": {"tested_on": "CALU-6", "assay": "Xenograft tumor model CALU-6", "format": "in vivo", "conditions": "oral"}}, "data": [{"smiles": "COCCN1C(=O)c2cc(-c3ccnc(Nc4ccnn4C)c3)sc2C1(C)C", "note": "[Example 1, 5-(2-Methoxyethyl)-6,6-dimethyl-2-{2-[(1-methyl-1H-pyrazol-5-yl)amino]pyridin-4-yl}-5,6-dihydro-4H-thieno[2,3-c]pyrrol-4-one]", "values": [{"measurement": "TED50 (pRSK1 inhibition in tumor)", "setting": "[1]", "value": 12, "unit": "mg/kg"}, {"measurement": "Regression (%)", "setting": "[2]; A-375, 3 mg/kg BID", "value": "−60", "unit": "%"}, {"measurement": "Delta T/C (%)", "setting": "[2]; A-375, 3 mg/kg QD, p 0.852", "value": 10, "unit": "%"}, {"measurement": "Regression (%)", "setting": "[2]; A-375, 15 mg/kg BID", "value": "−47", "unit": "%"}, {"measurement": "Delta T/C (%)", "setting": "[3]; CALU-6, 10 mg/kg BID, p 0.013", "value": 44, "unit": "%"}, {"measurement": "Regression (%)", "setting": "[3]; CALU-6, 25 mg/kg BID, p <0.001", "value": "−10", "unit": "%"}, {"measurement": "Delta T/C (%)", "setting": "[3]; CALU-6, 25 mg/kg QD, p 0.010", "value": 46, "unit": "%"}, {"measurement": "Regression (%)", "setting": "[3]; CALU-6, 50 mg/kg BID, p <0.001", "value": "−75", "unit": "%"}, {"measurement": "Delta T/C (%)", "setting": "[3]; CALU-6, 50 mg/kg QD, p <0.001", "value": 92, "unit": "%"}, {"measurement": "Regression (%)", "setting": "[3]; CALU-6, 75 mg/kg QD, p <0.001", "value": "−38", "unit": "%"}]}]}
